Reference: patent US12616200B2, “Herbicidal combinations comprising diflufenican and mesotrione” (priority 2020, dated 2026)

Experiments:
[1] = tested on: AMATU WR-2012-017-08 (resistant against HPPD-inhibitor herbicides and atrazine (PSII-inhibitor)); test: Greenhouse pre-emergence herbicidal activity, AMATU WR-2012-017-08; assay type: in vivo, Amaranthus tuberculatus; settings: 3 weeks, mean of 6
[2] = tested on: AMATU WR-2013-044 (resistant against HPPD-inhibitor herbicides and atrazine (PSII-inhibitor)); test: Greenhouse pre-emergence herbicidal activity, AMATU WR-2013-044; assay type: in vivo, Amaranthus tuberculatus; settings: 3 weeks, mean of 6

SMILES | Activity [%] against AMATU WR-2012-017-08 ([1]; rate 52 g/ha) | Activity [%] against AMATU WR-2012-017-08 ([1]; rate 105 g/ha) | Activity [%] against AMATU WR-2013-044 ([2]; rate 52 g/ha) | Activity [%] against AMATU WR-2013-044 ([2]; rate 105 g/ha) | Activity [%] against AMATU WR-2012-017-08 ([1]; rate 75 g/ha) | Activity [%] against AMATU WR-2012-017-08 ([1]; rate 150 g/ha) | Activity [%] against AMATU WR-2013-044 ([2]; rate 75 g/ha) | Activity [%] against AMATU WR-2013-044 ([2]; rate 150 g/ha)
CS(=O)(=O)c1ccc(C(=O)C2C(=O)CCCC2=O)c([N+](=O)[O-])c1 [MST, 2-[4-(methylsulfonyl)-2-nitrobenzoyl]cyclohexane-1,3-dione] | 59.2% | 84.2% | 70.0% | 76.7% |  |  |  | 
O=C(Nc1ccc(F)cc1F)c1cccnc1Oc1cccc(C(F)(F)F)c1 [DFF, 2′,4′-difluoro-2-[3-(trifluoromethyl)phenoxy]pyridine-3-carboxanilide] |  |  |  |  | 66.7% | 86.3% | 69.2% | 80.8%
